Source: ChEMBL document CHEMBL1154198, “Chemical genetics of Plasmodium falciparum” (Nature, 2010)

How the values were obtained:
Plasmodium falciparum [1] = experiment: ST_JUDE: Plasmodium falciparum K1 EC50 (uM) as measured by SYBR green dye; format: functional, organism-based
Plasmodium falciparum [2] = experiment: ST_JUDE: Plasmodium falciparum 3D7 EC50 (uM) as measured by SYBR green dye; format: functional, organism-based

SMILES | EC50 (Plasmodium falciparum [1]) | EC50 (Plasmodium falciparum [2])
CC(C)(C)c1ccc(C(=O)CC(=O)c2cc(Cl)ccc2O)cc1 | > 15 µM | > 15 µM
CCN1CCN(c2cc(C)c3cc(NC(=S)NCCCN4CC(C)CC(C)C4)ccc3n2)CC1 (stereo not given) | > 15 µM | 5.34 µM
CCCCc1ccc2nc(C)c(CN(C)C3CCN(C)CC3)c(O)c2c1 | > 15 µM | > 15 µM
Nc1nc(Nc2ccc(Cl)c(Cl)c2)nc2ccccc12 | > 15 µM | 2.22 µM
CCOc1ccc(C2N(C)c3ccccc3N2C)cc1 | > 15 µM | > 15 µM
CN1C(=O)C(=Cc2ccc(-c3ccc([N+](=O)[O-])cc3O)o2)C(=O)N(C)C1=O | > 15 µM | > 15 µM
COc1cccc(C2C(C(=O)Nc3ccccc3C)=C(C)Nc3nnnn32)c1 (stereo not given) | > 15 µM | > 15 µM
CCc1c(C)nc(-n2nc(C)cc2NC(=O)c2ccccc2I)nc1O | > 15 µM | > 15 µM
O=C1C(Sc2nc[nH]n2)=C/C(=N/S(=O)(=O)c2ccc(F)cc2)c2ccccc21 | 11.9 µM | > 15 µM
COc1cccc(-c2nc3cc(NC(=O)c4cccc(Cl)c4Cl)ccc3o2)c1 | > 15 µM | > 15 µM
CCCCCCCCn1cnc2ccccc21 | > 15 µM | > 15 µM
Cc1ccc(NC(=O)CSc2nc3c(cnn3CCO)c(=O)[nH]2)cc1 | 1.91 µM | > 15 µM
Cc1ccc(CN2CCN(C3CCCCC3)C(CCO)C2)cc1C (stereo not given) | > 15 µM | > 15 µM
O=C(Nc1ccccc1F)C1c2ccccc2C(=O)N(C2CCCC2)C1c1cccs1 (stereo not given) | 2.55 µM | 1.77 µM
COc1cccc(C(=O)NC(c2ccc(C)cc2)c2cc(Cl)c3cccnc3c2O)c1 (stereo not given) | > 15 µM | > 15 µM
CC(=O)N(C1=C(NCCO)C(=O)c2ccccc2C1=O)c1cccc(Br)c1 | 0.0286 µM | 0.0171 µM
CCn1cc(CCCC(=O)NCc2ccc(OC)cc2)c2ccccc21 | 4.06 µM | 3.75 µM
CC(C)c1ccc(/C=C2\Oc3c(ccc(O)c3CN(C)C)C2=O)cc1 | 0.615 µM | 1.01 µM
COc1ccc2ncc(C(=O)c3ccccc3)c(N3CCN(C)CC3)c2c1 | > 15 µM | > 15 µM
COc1ccc(OC)c(Nc2nc(NCCO)c3ccccc3n2)c1 | > 15 µM | > 15 µM
CC(C(=O)c1ccc(-c2ccccc2)cc1)[n+]1ccccc1 (stereo not given) | 4 µM | 7.02 µM
CN1C(=O)/C(=C\c2cccc(Cl)c2)Sc2ccc(C(=O)NC3CCN(Cc4ccccc4)CC3)cc21 | > 15 µM | 0.657 µM
CCCOc1cc(O)c(-c2[nH]nc(C)c2Oc2ccccc2)cc1CC | 2.1 µM | 3.83 µM
CCCN1CCN(CCCNC(=O)c2ccc3c(c2)sc2nc(-c4ccc(C)cc4)cn23)CC1 | 4.65 µM | 2.02 µM

SMILES | EC50 (Plasmodium falciparum [1]) | EC50 (Plasmodium falciparum [2])
CCCCCN1CCN(c2nc3c(c(=O)[nH]c(=O)n3C)n2Cc2ccc(C)cc2)CC1 | > 15 µM | > 15 µM
COc1ccc(C2CC(=O)C3=C(C2)NC(=O)CC3c2ccc(SC)cc2)cc1OC (stereo not given) | 4.79 µM | 3.65 µM
O=C(Nc1cccc(Cl)c1)C1c2ccccc2C(=O)N(C2CCCC2)C1c1cccs1 (stereo not given) | 0.326 µM | 0.297 µM
C#CCN(CC=C)Cc1nc(-c2cc(OC)ccc2OC)oc1C | > 15 µM | > 15 µM
Oc1c(CN2CCN(c3ccccc3F)CC2)cc(Br)c2cccnc12 | 3.44 µM | 3.76 µM
Cc1ccc(Cn2c(=O)c3ccccc3n3c(CCC(=O)N4CCC(C(N)=O)CC4)nnc23)cc1 | > 15 µM | > 15 µM
COc1cc(Cl)c(NC(=O)c2cc3ccccc3cc2O)c(OC)c1 | > 15 µM | > 15 µM
CCCCCN1COc2ccc3c4c(c(=O)oc3c2C1)CCCC4 | 0.822 µM | 1.69 µM
NS(=O)(=O)c1ccc(NC(=O)Cc2ccc([N+](=O)[O-])cc2)cc1 | > 15 µM | > 15 µM
O=C(Nc1cccc(Cl)c1)Nc1ccccc1OC(F)(F)C(F)F | 1.32 µM | 3.06 µM
CCN(CC)CCCNC(=O)C1CCN(c2nc3c(C)cc(C)cc3s2)CC1 | > 15 µM | > 15 µM
O=C1CC(c2ccc([N+](=O)[O-])cc2)C2=C(CC(c3cccs3)CC2=O)N1 (stereo not given) | 2.74 µM | 4.89 µM
Cc1cccc2nc(Cn3c(=O)n(Cc4ccc5c(c4)OCO5)c(=O)c4ccc(C(=O)NC5CCCCC5)cc43)cc(=O)n12 | > 15 µM | > 15 µM
Cc1ccnc(NC(c2ccc(Cl)cc2Cl)c2ccc3cccnc3c2O)c1 (stereo not given) | 1.44 µM | 1.56 µM
Cc1cc(Nc2ccc(C)c(F)c2)n2nc(C)nc2n1 | 3.09 µM | 1.29 µM
COC(=O)C1=CN(Cc2ccc(C)cc2)C=C(C(=O)OC)C1c1cc(OC)c(OC)c(OC)c1 | 5.49 µM | 4.49 µM
CCc1ccc(Oc2c(C(F)(F)F)oc3c(CN4CCOCC4)c(O)ccc3c2=O)cc1 | > 15 µM | > 15 µM
CCCN(CCC)CCCNC(=O)c1cc2c(-c3cccc(OC)c3)nn(C)c2s1 | 7.45 µM | 2.15 µM
CN(C)S(=O)(=O)c1ccc(C(=O)NNc2nc3ccc(Cl)cc3s2)cc1 | 4.5 µM | 4.68 µM
CC1(C)Cc2ccccc2C(NCC(=O)O)=N1 | > 15 µM | > 15 µM
CCCC(=O)N1CCN(c2ccc(NC(=O)c3cccc([N+](=O)[O-])c3)cc2Cl)CC1 | > 15 µM | > 15 µM
O=[N+]([O-])c1nonc1NCn1nnc2ccccc21 | 7.28 µM | 5.07 µM
O=C(NCCc1cccc(C(F)(F)F)c1)Nc1cc(C(F)(F)F)ccc1Cl | 2.37 µM | 3.09 µM
Oc1ccc(Nc2nc(NCc3ccccc3)c3ccccc3n2)cc1 | > 15 µM | 0.203 µM

SMILES | EC50 (Plasmodium falciparum [1]) | EC50 (Plasmodium falciparum [2])
CC(C)N1CCN(Cc2ccc(C#CC(C)(C)O)cc2)CC1CCO (stereo not given) | > 15 µM | > 15 µM
CCC(C)c1ccccc1OCC(O)CNC1CCCC1 (stereo not given) | 0.959 µM | 1.73 µM
Cc1cc(C)c2c(c1)c(-c1ccccc1)c(-c1ccccc1)n2CC(O)CN1CCN(CCO)CC1 (stereo not given) | 1.59 µM | 2.16 µM
CCOC(=O)C(NC(=O)CC)(Nc1ccc(S(=O)(=O)Nc2cc(C)on2)cc1)C(F)(F)F (stereo not given) | 8.98 µM | 4.49 µM
CN(C)c1cc[n+](CC(=O)c2ccc(Cl)cc2)cc1 | 1.74 µM | 2.44 µM
O=C(Nc1cccc(OC(F)(F)F)c1)c1ccc(Br)o1 | > 15 µM | > 15 µM
CCOc1ccc2nc(N(Cc3cccnc3)C(=O)c3cccs3)sc2c1 | 7 µM | 6.99 µM
CCCCCn1c(=N)n(CC(O)COc2cccc(C)c2)c2ccccc21 (stereo not given) | 1.36 µM | 2.65 µM
CCOC(=O)c1ccc(NC(=O)N2CCN(Cc3ccccc3)CC2)cc1 | > 15 µM | > 15 µM
Cc1ccc2nc(-c3cccnc3)cc(C(=O)Nc3ccc(S(=O)(=O)NC(C)(C)C)cc3)c2c1 | > 15 µM | > 15 µM
O=C(N/N=C/c1nc2ccccc2[nH]1)c1cccc(Cl)c1 | > 15 µM | 1.65 µM
Oc1ccc(-c2nc(-c3ccc4oc5ccc(-c6[nH]c(-c7ccc(O)cc7)nc6-c6ccccc6)cc5c4c3)c(-c3ccccc3)[nH]2)cc1 | 2.99 µM | 8.11 µM
C=CCNC(=S)N1CCc2cc(OC)c(OC)cc2C1c1ccccc1 (stereo not given) | 3.73 µM | 3.85 µM
CCCN1CC=C2C(C#N)=C(N)C(C#N)(C#N)C(c3ccccc3C(F)(F)F)C2C1 (stereo not given) | 0.479 µM | 1.12 µM
CCS(=O)(=O)c1ccccc1C(=O)Nc1nc(-c2ccccn2)cs1 | 5.14 µM | 6.53 µM
CCCC(=O)NC(c1ccc(C(C)C)cc1)c1cc(Cl)c2cccnc2c1O (stereo not given) | > 15 µM | > 15 µM
CCOC(=O)c1ccc(NC(=O)Cc2csc(NC(=O)Nc3ccccc3)n2)cc1 | > 15 µM | > 15 µM
C=CCN1C(=O)c2[nH]nc(-c3c(C)cc(C)cc3O)c2C1c1cccc(OC)c1 (stereo not given) | 1.42 µM | 2.42 µM
Cc1cc(N2CCC(N(C)C3CCCC3)CC2)nc2cc(O)ccc12 | > 15 µM | 1.54 µM
O=[N+]([O-])c1cccc(C2Nc3ccccc3-c3nc4ccccc4n32)c1 (stereo not given) | 4.27 µM | 3.69 µM
CC(C)CCNCC(O)Cn1c2ccc(Br)cc2c2cc(Br)ccc21 (stereo not given) | 0.149 µM | 0.492 µM
O=C(N1CCCN(C(=O)C(Cl)(Cl)Cl)CC1)C(Cl)(Cl)Cl | 2.23 µM | 3.42 µM
